Patent US5547870A, “Oxalate decarboxylate” (Zeneca Limited, priority 1994, dated 1996)
Counter-ions that a name gives are not always drawn. Blank lines part the entries; values can stand above or below the molecule they belong to.

Key:
[1] = target: T1, Collybia velutipes oxalate decarboxylase, purified native enzyme, peak A (eluting at pH 3.3 on chromatofocusing) (Flammulina velutipes, UniProt Q9UVK4); experiment: Oxalate decarboxylase assay: liberation of 14CO2 from [14C]-oxalic acid; Lineweaver-Burk plots; type: biochemical, Collybia velutipes (strain S. A.T.C.C 13547)
T1 construct: chromatofocusing peak A (pH 3.3); about 55 kDa when deglycosylated
T1 sequence (Q9UVK4 21-447): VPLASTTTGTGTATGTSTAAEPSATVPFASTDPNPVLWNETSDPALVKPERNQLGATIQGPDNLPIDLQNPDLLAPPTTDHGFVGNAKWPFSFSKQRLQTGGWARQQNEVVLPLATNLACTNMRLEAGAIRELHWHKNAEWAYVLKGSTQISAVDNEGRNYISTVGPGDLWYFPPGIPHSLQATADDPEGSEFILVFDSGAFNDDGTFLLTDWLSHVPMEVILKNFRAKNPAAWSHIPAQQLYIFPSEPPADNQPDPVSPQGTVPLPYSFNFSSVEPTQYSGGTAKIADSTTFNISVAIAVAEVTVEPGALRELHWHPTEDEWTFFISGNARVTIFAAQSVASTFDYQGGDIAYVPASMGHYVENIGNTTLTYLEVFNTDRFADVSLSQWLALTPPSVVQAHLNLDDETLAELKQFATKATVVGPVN
Protocol: (§1) The oxalate decarboxylase activity was also determined by measuring the liberation of ^14 CO2 from [^14 C]-oxalic acid (Amersham, 4.1 mCi/mmol). The enzyme assay was carried out in small glass vails which contained 1 ml of the following reaction mixture: 0.2M potassium citrate, pH 3.0, 0.005M potassium oxalate, pH 3.0, 5.6 nmoles (0.0227 μCi) of (^14 C)-oxalic acid and 0.2 ml of enzyme solution. The tubes were preincubated for 5 min before the addition of enzyme. The tubes were sealed with rubber-stoppers and incubated at 37° C. for 30 min in a shaking water bath. The reaction was terminated by injection of 0.2 ml of 50% v/v trichloroacetic acid through the rubber caps and the tubes were shaken for additional 60 min to trap all the ^14 CO2 evolved in the 0.2 ml methylbenzethonium hydroxide(Sigma) placed in a plastic vial inside the glass tube. The plastic wells were withdrawn and the contents transferred to 5 ml of toluene based scintillation fluid and radioactivity determined in a liquid scintillation counter. Blanks tubes were set up in which the 0.2 ml of 50% TCA was added before the enzyme or the enzyme was omitted. In kinetic experiments, the values were corrected for the radioactivity obtained from the boiled denatured enzyme.
(§2) One unit was defined as the amount of enzyme releasing 1 μmole of ^14 CO2 per min at 37° C. under standard assay conditions. The overall assay efficiency was usually between 60-70%. Protein was determined by Lowry microassay method (Peterson, Anal. Biochem. 83:346 (1977)). Vmax and Km were determined by Lineweaver-Burk plot (Lineweaver and Burk, J. Am. Chem. Soc. 56:658-666 (1934)).

[2] = substrate: O=C(O)C(=O)O; experiment: as above; type: biochemical, Collybia velutipes (strain S. A.T.C.C 13547); conditions: other: peak A enzyme, Lineweaver-Burk plot, 0.2M potassium citrate pH 3.0, 37° C.
Protocol: as §1, with “The reaction was terminated by injection of 0.2 ml of 50% v/v trichloroacetic acid through the rubber caps and the tubes were shaken for additional 60 min to trap all the ^14 CO2 evolved in the 0.2 ml methylbenzethonium hydroxide(Sigma) placed in a plastic vial inside the glass tube.” left out, “Blanks tubes were set up in which the 0.2 ml of 50% TCA was added before the enzyme or the enzyme was omitted.” left out
as §2, with “The overall assay efficiency was usually between 60-70%.” left out

Molecule: O=C(O)CI [iodoacetate]
activity at 50000 µM ([1]; read-out: activity retained in the presence of sulfhydryl group reagent): 95%

Molecule: O=S(=O)(O)c1cc[c]([Hg][Cl])cc1 [p-chloromercuribenzenesulfonic acid]
activity retained in the presence of sulfhydryl group reagent ([1]; 50 mM reagent): 95%

Ki ([1]; competitive inhibition, 90 mM PO4^2- added to the reaction, read-out: Ki (phosphate ions)): 9 mM
Molecule: O=P(O)(O)O [phosphate ions, phosphate]

Vmax ([1]; peak A enzyme, potassium oxalate as substrate, Lineweaver-Burk plot, pH 3.0, 37° C.): 166 µmol/min/mg
Molecule: O=C(O)C(=O)O [potassium oxalate]

B1: Collybia velutipes oxalate decarboxylase, purified native enzyme, peak A (eluting at pH 3.3 on chromatofocusing) (Flammulina velutipes) (protein)
chain: VPLASTTTGTGTATGTSTAAEPSATVPFASTDPNPVLWNETSDPALVKPERNQLGATIQGPDNLPIDLQNPDLLAPPTTDHGFVGNAKWPFSFSKQRLQTGGWARQQNEVVLPLATNLACTNMRLEAGAIRELHWHKNAEWAYVLKGSTQISAVDNEGRNYISTVGPGDLWYFPPGIPHSLQATADDPEGSEFILVFDSGAFNDDGTFLLTDWLSHVPMEVILKNFRAKNPAAWSHIPAQQLYIFPSEPPADNQPDPVSPQGTVPLPYSFNFSSVEPTQYSGGTAKIADSTTFNISVAIAVAEVTVEPGALRELHWHPTEDEWTFFISGNARVTIFAAQSVASTFDYQGGDIAYVPASMGHYVENIGNTTLTYLEVFNTDRFADVSLSQWLALTPPSVVQAHLNLDDETLAELKQFATKATVVGPVN
notes: chromatofocusing peak A (pH 3.3); about 55 kDa when deglycosylated
Km [2]: 4.5 mM | Vmax [2]: 166 µmol/min/mg
